Test results: PubChem BioAssay AID328 (DTP/NCI, 2004)
“And” between values parts separate entries of the source, which are not always exact repeats. Identical values can stand only once. Toxic doses and inconclusive results are not listed.

Test system: BDF1 mice, P388 leukemia ip, median survival T/C
Test: NCI In Vivo Anticancer Drug Screen. Data for tumor model P388 Leukemia (intraperitoneal) in B6D2F1 (BDF1) mice
Settings: endpoint: median survival time, higher = longer survival
Outline: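 T/C = treated-group survival ÷ vehicle-control survival; tumour transplanted into mice before dosing.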

[1] = dose: 2.0 mg/kg/injection, schedule: Q01DX009 (ip), vehicle: saline with Tween-80
[2] = dose: 25.0 mg/kg/injection, schedule: Q01DX009 (ip), vehicle: saline
[3] = dose: 50.0 mg/kg/injection, schedule: Q01DX009 (ip), vehicle: saline
[4] = dose: 50.0 mg/kg/injection, schedule: Q04DX003 (ip), vehicle: saline
[5] = dose: 100.0 mg/kg/injection, schedule: Q01DX009 (ip), vehicle: saline with Tween-80
[6] = dose: 100.0 mg/kg/injection, schedule: Q04DX003 (ip), vehicle: saline with Tween-80
[7] = dose: 200.0 mg/kg/injection, schedule: Q01DX009 (ip), vehicle: saline with Tween-80
[8] = dose: 400.0 mg/kg/injection, schedule: Q01DX009 (ip), vehicle: saline with Tween-80
[9] = dose: 100.0 mg/kg/injection, schedule: Q01DX009 (ip), vehicle: saline
[10] = dose: 100.0 mg/kg/injection, schedule: Q04DX003 (ip), vehicle: saline
[11] = dose: 50.0 mg/kg/injection, schedule: Q01DX009 (ip), vehicle: saline with Tween-80
[12] = dose: 25.0 mg/kg/injection, schedule: Q01DX009 (ip), vehicle: saline with Tween-80
[13] = dose: 75.0 mg/kg/injection, schedule: Q01DX009 (ip), vehicle: saline with Tween-80
[14] = dose: 150.0 mg/kg/injection, schedule: Q01DX009 (ip), vehicle: saline with Tween-80

C[n+]1ccc(Nc2ccc(NC(=O)c3ccc(Nc4cc[n+](C)c5ccc(N)cc45)cc3N)cc2)cc1
T/C (dose: 0.5 mg/kg/injection, schedule: Q01DX010 (ip), vehicle: saline): 150 % of control
T/C (dose: 0.88 mg/kg/injection, schedule: Q04DX003 (ip), vehicle: saline with Tween-80): 123 % of control
T/C (dose: 1.0 mg/kg/injection, schedule: Q01DX010 (ip), vehicle: saline): 160 % of control
T/C (dose: 1.56 mg/kg/injection, schedule: Q01DX009 (ip), vehicle: Klucel (hydroxypropylcellulose) (HPC)): 194 % of control
T/C [1]: 150 % of control
T/C (dose: 2.0 mg/kg/injection, schedule: Q01DX010 (ip), vehicle: saline): 205 % of control
T/C (dose: 3.0 mg/kg/injection, schedule: Q04DX003 (ip), vehicle: saline with Tween-80): 152 % of control
T/C (dose: 3.12 mg/kg/injection, schedule: Q01DX009 (ip), vehicle: Klucel (hydroxypropylcellulose) (HPC)): 252 % of control and 216 % of control
T/C (dose: 3.12 mg/kg/injection, schedule: Q01DX009 (ip), vehicle: saline): 169 % of control
T/C (dose: 3.6 mg/kg/injection, schedule: Q04DX003 (ip), vehicle: saline with Tween-80): 154 % of control
T/C (dose: 4.0 mg/kg/injection, schedule: Q01DX009 (ip), vehicle: saline with Tween-80): 229 % of control
T/C (dose: 4.0 mg/kg/injection, schedule: Q01DX010 (ip), vehicle: saline): 300 % of control
T/C (dose: 5.56 mg/kg/injection, schedule: Q04DX003 (ip), vehicle: saline): 168 % of control
T/C (dose: 5.6 mg/kg/injection, schedule: Q04DX003 (ip), vehicle: saline with Tween-80): 159 % of control
T/C (dose: 6.25 mg/kg/injection, schedule: Q01DX009 (ip), vehicle: Klucel (hydroxypropylcellulose) (HPC)): 266 % of control and 267 % of control
T/C (dose: 6.25 mg/kg/injection, schedule: Q01DX009 (ip), vehicle: saline): 172 % of control
T/C (dose: 6.25 mg/kg/injection, schedule: Q01DX010 (ip), vehicle: saline): 300 % of control
T/C (dose: 6.25 mg/kg/injection, schedule: Q04DX003 (ip), vehicle: saline): 163 % of control
T/C (dose: 8.0 mg/kg/injection, schedule: Q01DX009 (ip), vehicle: saline with Tween-80): 250 % of control
T/C (dose: 8.3 mg/kg/injection, schedule: Q04DX003 (ip), vehicle: saline with Tween-80): 177 % of control
T/C (dose: 8.33 mg/kg/injection, schedule: Q04DX003 (ip), vehicle: saline): 227 % of control
T/C (dose: 12.5 mg/kg/injection, schedule: Q01DX009 (ip), vehicle: Klucel (hydroxypropylcellulose) (HPC)): 267 % of control and 199 % of control
T/C (dose: 12.5 mg/kg/injection, schedule: Q01DX009 (ip), vehicle: saline): 172 % of control
T/C (dose: 12.5 mg/kg/injection, schedule: Q01DX010 (ip), vehicle: saline): 300 % of control
T/C (dose: 12.5 mg/kg/injection, schedule: Q04DX003 (ip), vehicle: saline with Tween-80): 209 % of control
T/C (dose: 12.5 mg/kg/injection, schedule: Q04DX003 (ip), vehicle: saline): 200 % of control and 218 % of control and 186 % of control
T/C (dose: 16.0 mg/kg/injection, schedule: Q01DX009 (ip), vehicle: saline with Tween-80): 250 % of control
T/C (dose: 18.7 mg/kg/injection, schedule: Q04DX003 (ip), vehicle: saline with Tween-80): 263 % of control
T/C (dose: 25.0 mg/kg/injection, schedule: Q01DX009 (ip), vehicle: Klucel (hydroxypropylcellulose) (HPC)): 116 % of control
T/C [2]: 172 % of control
T/C (dose: 25.0 mg/kg/injection, schedule: Q04DX003 (ip), vehicle: saline): 272 % of control and 254 % of control
T/C (dose: 26.0 mg/kg/injection, schedule: Q04DX003 (ip), vehicle: saline with Tween-80): 272 % of control
T/C (dose: 32.0 mg/kg/injection, schedule: Q01DX009 (ip), vehicle: saline with Tween-80): 112 % of control
T/C (dose: 40.0 mg/kg/injection, schedule: Q04DX003 (ip), vehicle: saline with Tween-80): 272 % of control
T/C [3]: 106 % of control
T/C (dose: 50.0 mg/kg/injection, schedule: Q01DX010 (ip), vehicle: saline): 90 % of control
T/C [4]: 310 % of control
T/C (dose: 60.0 mg/kg/injection, schedule: Q04DX003 (ip), vehicle: saline with Tween-80): 272 % of control

Cc1ccc(CCCCCCCCCCCC(=O)O)cc1
T/C [5]: 96 % of control
T/C [6]: 95 % of control
T/C [7]: 92 % of control
T/C (dose: 200.0 mg/kg/injection, schedule: Q04DX003 (ip), vehicle: saline with Tween-80): 100 % of control
T/C [8]: 107 % of control
T/C (dose: 400.0 mg/kg/injection, schedule: Q04DX003 (ip), vehicle: saline with Tween-80): 110 % of control

COC(=O)C1=C(C)NC(=O)NC1c1ccc(N(CCCl)CCCl)c(OC)c1 (stereo not drawn)
T/C (dose: 1.3 mg/kg/injection, schedule: Q01DX009 (ip), vehicle: saline with Tween-80): 169 % of control
T/C [1]: 227 % of control
T/C (dose: 3.0 mg/kg/injection, schedule: Q01DX009 (ip), vehicle: saline with Tween-80): 220 % of control
T/C (dose: 4.5 mg/kg/injection, schedule: Q01DX009 (ip), vehicle: saline with Tween-80): 227 % of control

CCCCCCCCCCCCCCCC(=O)OCC1OC(CO)(OC2OC(CO)C(O)C(O)C2O)C(O)C1O (stereo not drawn)
T/C (dose: 100.0 mg/kg/injection, schedule: Q04DX003 (ip), vehicle: Klucel (hydroxypropylcellulose) (HPC)): 104 % of control
T/C (dose: 200.0 mg/kg/injection, schedule: Q04DX003 (ip), vehicle: Klucel (hydroxypropylcellulose) (HPC)): 112 % of control

CCOC(=O)C(C(=O)OCC)C1c2ccccc2C(=O)N(CCN(C)C)c2ccccc21 (stereo not drawn)
T/C [2]: 109 % of control
T/C [3]: 95 % of control
T/C [4]: 91 % of control
T/C [9]: 104 % of control
T/C [10]: 87 % of control

O=C(/C=C/c1ccccc1)c1ccccc1
T/C [11]: 106 % of control
T/C [5]: 104 % of control
T/C [7]: 108 % of control
T/C [8]: 109 % of control

C/C=C/C(=O)NCC(C(C)C)/[N+]([O-])=N/O (stereo not drawn)
T/C (dose: 6.25 mg/kg/injection, schedule: Q01DX009 (ip), vehicle: saline with Tween-80): 104 % of control
T/C (dose: 12.5 mg/kg/injection, schedule: Q01DX009 (ip), vehicle: saline with Tween-80): 116 % of control
T/C [12]: 87 % of control

CC(=O)C/C(C)=N\NC(=S)SCc1ccccc1
T/C [13]: 90 % of control
T/C [14]: 97 % of control
T/C (dose: 300.0 mg/kg/injection, schedule: Q01DX009 (ip), vehicle: saline with Tween-80): 92 % of control

C1=C(c2ccccc2)OC(c2ccccc2)C1c1ccccc1 (stereo not drawn)
T/C (dose: 25.0 mg/kg/injection, schedule: Q01DX005 (ip), vehicle: saline with Tween-80): 94 % of control
T/C (dose: 50.0 mg/kg/injection, schedule: Q01DX005 (ip), vehicle: saline with Tween-80): 94 % of control

CCc1nc2ccccc2c(=O)n1C
T/C [11]: 101 % of control
T/C [7]: 101 % of control

S=C(S)NNc1ccccc1
T/C [12]: 86 % of control
T/C (dose: 25.0 mg/kg/injection, schedule: Q04DX003 (ip), vehicle: saline with Tween-80): 110 % of control
T/C [11]: 100 % of control
T/C (dose: 50.0 mg/kg/injection, schedule: Q04DX003 (ip), vehicle: saline with Tween-80): 105 % of control
T/C [5]: 100 % of control
T/C [6]: 100 % of control

O=C(O)C1CCC[N-]C1.O=C(O)C1CCC[N-]C1.O=C(O)C1CCC[N-]C1.O=C(O)C1CCC[N-]C1.[Cl][Rh][Cl] (stereo not drawn)
T/C (dose: 4.0 mg/kg/injection, schedule: Q01DX009 (ip), vehicle: saline): 100 % of control
T/C (dose: 8.0 mg/kg/injection, schedule: Q01DX009 (ip), vehicle: saline): 99 % of control
T/C (dose: 10.0 mg/kg/injection, schedule: Q01DX009 (ip), vehicle: saline): 118 % of control
T/C (dose: 16.0 mg/kg/injection, schedule: Q01DX009 (ip), vehicle: saline): 93 % of control
T/C (dose: 20.0 mg/kg/injection, schedule: Q01DX009 (ip), vehicle: saline): 98 % of control
T/C (dose: 40.0 mg/kg/injection, schedule: Q01DX009 (ip), vehicle: saline): 98 % of control
T/C [3]: 100 % of control
T/C [9]: 86 % of control
T/C [10]: 100 % of control
T/C (dose: 200.0 mg/kg/injection, schedule: Q04DX003 (ip), vehicle: saline): 108 % of control
T/C (dose: 400.0 mg/kg/injection, schedule: Q04DX003 (ip), vehicle: saline): 102 % of control

CCOC(=O)C/C(C)=N\NC(=O)c1ccncc1
T/C [13]: 88 % of control
T/C [14]: 102 % of control
